≈ marks a conversion by molar mass, not a printed value. Like-named read-outs stand apart in the source and are kept apart here.
Assays:
[1] = Human Hepatocyte Stability (Test D); format: in vitro ADME; conditions: human, cryopreserved pooled human hepatocytes (LiverPool 10-Donor), geometric mean if run multiple times
Outline: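 Intrinsic clearance (μL/min/10^6 cells), derived as kV/N from the log-linear loss of parent compound. Compound incubated at 37 °C with cryopreserved pooled human hepatocytes, 0.25×10^6 cells in 0.25 mL L-15; dosing solution 100 μM in acetonitrile. Singlicate incubations, cassette LC-MS; repeats reported as geometric mean.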

[2] = Solubility (Test F); format: physicochemical; conditions: arithmetic mean if run multiple times
Method: The assay was conducted according to the Solubility Assay described in pages 164-167 of Wernevik, J. et al., “A Fully Integrated Assay Panel for Early Drug Metabolism and Pharmacokinetics Profiling”, Assay and Drug Development Technologies, 2020, 18(4), 157-179. Data are reported in Table 36 as solubility ([…]. Where the assay was run multiple times for the same compound, the arithmetic mean is reported.

[3] = Human Liver Microsomal Stability (Test C); format: in vitro ADME; conditions: human, liver microsomes
Outline: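 CLint (μl/min/mg protein) derived from compound depletion in human liver microsomes following a published standardized early-DMPK protocol; replicate determinations given as arithmetic mean.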

[4] = Human Plasma Protein Binding (Test B); format: in vitro ADME; conditions: fraction unbound (fu)
Outline: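 Values given as % free (fu) in human plasma, using the method of Wernevik et al. (2020). For compounds tested more than once, the arithmetic mean is given.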

[5] = Rat Hepatocyte Stability (Test E); format: in vitro ADME; conditions: rat, hepatocytes, geometric mean if run multiple times
Outline: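 Intrinsic clearance in rat hepatocytes, expressed as μl/min/10^6 cells, following the literature integrated DMPK panel method. Repeat determinations combined as geometric mean.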

[6] = molecular target: T1, human RXFP1 (Homo sapiens, UniProt Q9HBX9); assay: RXFP1 Hu cAMP (Test A); format: cell-based; design: expressed in transfected cells; host or cells: Jump-In T-REx CHO-K1 cells (ThermoFisher), induced with 10 ng/ml doxycycline for 24 h
T1 sequence (Q9HBX9 1-757): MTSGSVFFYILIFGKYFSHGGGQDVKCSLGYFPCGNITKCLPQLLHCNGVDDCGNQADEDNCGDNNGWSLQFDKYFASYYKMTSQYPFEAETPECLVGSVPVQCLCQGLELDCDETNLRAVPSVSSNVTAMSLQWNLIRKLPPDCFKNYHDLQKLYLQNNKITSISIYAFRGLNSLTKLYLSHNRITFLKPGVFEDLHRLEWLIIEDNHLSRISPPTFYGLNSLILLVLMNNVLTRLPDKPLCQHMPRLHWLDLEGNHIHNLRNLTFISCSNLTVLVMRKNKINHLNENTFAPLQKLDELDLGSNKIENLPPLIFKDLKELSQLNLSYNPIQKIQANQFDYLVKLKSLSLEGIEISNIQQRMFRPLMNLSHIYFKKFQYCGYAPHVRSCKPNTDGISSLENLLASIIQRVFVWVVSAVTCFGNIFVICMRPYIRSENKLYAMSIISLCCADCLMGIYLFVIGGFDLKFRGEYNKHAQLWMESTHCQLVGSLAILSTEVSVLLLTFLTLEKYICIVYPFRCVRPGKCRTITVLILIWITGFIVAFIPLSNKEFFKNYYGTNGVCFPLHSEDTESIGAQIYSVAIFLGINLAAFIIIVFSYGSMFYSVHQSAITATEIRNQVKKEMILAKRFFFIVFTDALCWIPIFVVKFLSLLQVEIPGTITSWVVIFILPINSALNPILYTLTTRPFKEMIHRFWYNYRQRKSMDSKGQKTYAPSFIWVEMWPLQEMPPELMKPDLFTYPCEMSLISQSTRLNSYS
Outline: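 Doxycycline-induced (10 ng/ml, 24 h) CHO-K1 cells stably expressing human RXFP1; cAMP read by competitive HTRF after 2 h at room temperature, with 0.5 mM IBMX final.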

[7] = RXFP1 Hu cAMP, read-out: Test A EC50

hepatocyte CLint at 1 µM [1] | solubility [2] | microsomal CLint [3] | Test B Human Plasma Protein Binding (% free) [4] | hepatocyte CLint [5] | Test A Sinf ([6]; RXFP1 Hu cAMP) | EC50 [6, 7] | SMILES | EC50 ([6]; Test A EC50, RXFP1 Hu cAMP)
2.6 µL/min/1e6 cells | 930 µM (≈ 511 µg/mL) | 13 µL/min/mg | 5.3 % free | 24 µL/min/1e6 cells | 110% | 37 nM | COc1cc(Cl)c(O[C@H]2CC[C@@](C)(C(=O)O)CC2)cc1C(=O)N[C@@H]1[C@H]2CC[C@H](C2)[C@@H]1C(=O)NCC(C)(C)C [Example 412] | –
4.3 µL/min/1e6 cells | 890 µM (≈ 591 µg/mL) | 25 µL/min/mg | 8.6 % free | 12 µL/min/1e6 cells | 106% | 79 nM | COc1cc(F)c(O[C@H]2CC[C@@](C)(C(=O)O)CC2)cc1C(=O)N[C@@H]1[C@H]2CC[C@H](C2)[C@@H]1C(=O)N[C@@H]1CCN(S(=O)(=O)C(F)(F)F)C1 [Example 605] | –
5.4 µL/min/1e6 cells | 700 µM (≈ 443 µg/mL) | < 3 µL/min/mg | <0.30 % free | 18 µL/min/1e6 cells | 103% | – | COc1cc(F)c(-c2cccc(C(=O)O)c2)cc1C(=O)N[C@H]1[C@@H](C(=O)Nc2cccc(S(=O)(=O)C(F)(F)F)c2)[C@@H]2C=C[C@H]1C2 (single isomer, unassigned) [Example 554] | –
9.2 µL/min/1e6 cells | > 1000 µM | 9.9 µL/min/mg | <0.30 % free | 18 µL/min/1e6 cells | – | > 50000 nM | COc1cc(F)c(-c2ccc(C(=O)O)cc2)cc1C(=O)N[C@@H]1[C@H](C(=O)Nc2cccc(S(=O)(=O)C(F)(F)F)c2)[C@H]2C=C[C@@H]1C2 (single isomer, unassigned) [Example 553] | –

Second part, the molecule before the results:

SMILES | hepatocyte CLint at 1 µM [1] | solubility [2] | microsomal CLint [3] | Test B Human Plasma Protein Binding (% free) [4] | hepatocyte CLint [5] | Test A Sinf ([6]; RXFP1 Hu cAMP) | EC50 [6, 7] | EC50 ([6]; Test A EC50, RXFP1 Hu cAMP)
COc1c(C#N)cc(O[C@H]2CC[C@@](C)(C(=O)O)CC2)cc1C(=O)N[C@@H]1[C@H]2CC[C@H](C2)[C@@H]1C(=O)NCC1(C)CCC1 [Example 404] | 11 µL/min/1e6 cells | 1000 µM (≈ 552 µg/mL) | 50 µL/min/mg | 2.3 % free | 19 µL/min/1e6 cells | – | – | 86 nM
COc1cc(F)c(-c2ncc(CCC(=O)O)s2)cc1C(=O)N[C@@H]1[C@H]2CC[C@H](C2)[C@@H]1C(=O)Nc1cccc(S(=O)(=O)C(F)(F)F)c1 [Example 243] | 26 µL/min/1e6 cells | 900 µM (≈ 603 µg/mL) | 58 µL/min/mg | 2.2 % free | 110 µL/min/1e6 cells | 96% | 99 nM | –
COc1cc(C#N)c(O[C@H]2CC[C@@](C)(C(=O)O)CC2)cc1C(=O)N[C@@H]1[C@H]2CC[C@H](C2)[C@@H]1C(=O)NC1(C)CCC1 [Example 90] | < 1 µL/min/1e6 cells | 800 µM (≈ 430 µg/mL) | < 3 µL/min/mg | 14 % free | 18 µL/min/1e6 cells | 111% | 140 nM | –
COc1cc(F)c(O[C@H]2CC[C@@](C)(C(=O)O)CC2)cc1C(=O)N[C@@H]1[C@H]2CC[C@H](C2)[C@@H]1C(=O)NCC1(F)CCOCC1 [Example 146, (1S,4s)-4-(2-Fluoro-5-(((1S,2R,3S,4R)-3-(((4-fluorotetrahydro-2H-pyran-4-yl)methyl)carbamoyl)bicyclo[2.2.1]heptan-2-yl)carbamoyl)-4-methoxyphenoxy)-1-methylcyclohexane-1-carboxylic acid] | < 1 µL/min/1e6 cells | 1000 µM (≈ 579 µg/mL) | < 3 µL/min/mg | 24 % free | 14 µL/min/1e6 cells | 87% | > 1900 nM | –

— patent US11667602B2, “Compounds and their use” (AstraZeneca AB, priority 2020, dated 2023)
